Source: patent publication US8076285B2, “Lysobactin amides” (Aicuris GmbH & Co. KG, priority 2006, dated 2011)

Conditions: amide bond; 28-membered ring
“[(3R)-N^2-(Benzyloxycarbonyl)-3-amino-3-(pyridin-3-yl)-L-alanyl]-[(3R)-3-hydroxy-L-leucyl]-L-leucyl-D-arginyl-L-isoleucyl-L-allothreonyl-glycyl-[(3R)-3-hydroxy-L-asparaginyl]-L-serine C^1.9-N^3.1-lactam bis-trifluoroacetate” gave a ring closure, isolated yield of 61%.
In the case of “[(3R)-N^2-(Benzyloxycarbonyl)-3-amino-L-leucyl]-[(3R)-3-hydroxy-L-leucyl]-L-leucyl-D-arginyl-L isoleucyl-L-allothreonyl-glycyl-[(3R)-3-hydroxy-L-asparaginyl]-L-serine C^1.9-N^3.1-lactam trifluoroacetate”, the ring closure, isolated yield is reported as 53%.
For “[(3R)-N^2-(Benzyloxycarbonyl)-3-amino-L-phenylalanyl]-L-threonyl-L-leucyl-D-arginyl-L-isoleucyl-L-allothreonyl-glycyl-L-seryl C^1.9-N^3.1-lactam trifluoroacetate”, the ring closure, isolated yield was 73%.
For “[(3R)-N^2-(Benzyloxycarbonyl)-3-amino-L-phenylalanyl]-[(3R)-3-hydroxy-L-leucyl]-(3-trimethylsilyl-L-alanyl)-D-arginyl-L-isoleucyl-L-allothreonyl-glycyl-L-seryl-L-serine C^1.9-N^3.1-lactam trifluoroacetate”, the ring closure, isolated yield was 98%.
In the case of “[(3R)-N^2-(Benzyloxycarbonyl)-3-amino-L-phenylalanyl]-[(3R)-3-hydroxy-L-leucyl]-L-isoleucyl-D-arginyl-L-isoleucyl-L-allothreonyl-glycyl-L-seryl-L-serine C^1.9-N^3.1-lactam trifluoroacetate”, the ring closure, isolated yield is reported as 62%.
In the case of “[(3R)-N^2-(Benzyloxycarbonyl)-3-amino-L-phenylalanyl]-[(3R)-3-hydroxy-L-leucyl]-L-leucyl-D-arginyl-L-isoleucyl-L-allothreonyl-D-alanyl-[(3S)-3-hydroxy-L-asparaginyl]-L-serine C^1.9-N^3.1-lactam trifluoroacetate”, the ring closure, isolated yield is reported as 48%.
In the case of “[(3R)-N^2-(Benzyloxycarbonyl)-3-amino-L-phenylalanyl]-[(3R)-3-hydroxy-L-leucyl]-L-leucyl-D-arginyl-L-isoleucyl-L-allothreonyl-D-seryl-L-seryl-L-serine C^1.9-N^3.1-lactam trifluoroacetate”, the ring closure, isolated yield is reported as 93%.
Work on “[(3R)-N^2-(Benzyloxycarbonyl)-3-amino-L-phenylalanyl]-[(3R)-3-hydroxy-L-leucyl]-L-leucyl-D-arginyl-L-isoleucyl-L-allothreonyl-glycyl-[(2S)-2-amino-3-(9H-fluoren-9-ylmethoxycarbonyl)aminobutyryl]-L-serine C^1.9-N^3.1-lactam trifluoroacetate” yielded a ring closure, isolated yield of 67%.
Substance “[(3R)-N^2-(Benzyloxycarbonyl)-3-amino-L-phenylalanyl]-[(3R)-3-hydroxy-L-leucyl]-L-leucyl-D-arginyl-L-isoleucyl-L-allothreonyl-glycyl-[(3S)-3-hydroxy-L-asparaginyl]-L-alanine C^1.9-N^3.1-lactam trifluoroacetate” has a ring closure, isolated yield of 93%.
For “[(3R)-N^2-(Benzyloxycarbonyl)-3-amino-L-phenylalanyl]-[(3R)-3-hydroxy-L-leucyl]-L-leucyl-D-arginyl-L-isoleucyl-L-allothreonyl-glycyl-glycyl-L-serine C^1.9-N^3.1-lactam trifluoroacetate”, the ring closure, isolated yield was 38%.
With “[(3R)-N^2-(Benzyloxycarbonyl)-3-amino-L-phenylalanyl]-[(3R)-3-hydroxy-L-leucyl]-L-leucyl-D-arginyl-L-isoleucyl-L-leucyl-glycyl-L-seryl-L-serine C^1.9-N^3.1-lactam trifluoroacetate” the ring closure, isolated yield was 97%.
With “[(3R)-N^2-(Benzyloxycarbonyl)-3-amino-L-phenylalanyl]-[(3R)-3-hydroxy-L-leucyl]-L-leucyl-D-arginyl-L-isoleucyl-L-seryl-glycyl-L-seryl-L-serine C^1.9-N^3.1-lactam trifluoroacetate” the ring closure, isolated yield was 81%.
In the case of “[(3R)-N^2-(Benzyloxycarbonyl)-3-amino-L-phenylalanyl]-[(3R)-3-hydroxy-L-leucyl]-L-leucyl-D-arginyl-L-isoleucyl-L-valyl-glycyl-L-seryl-L-serine C^1.9-N^3.1-lactam trifluoroacetate”, the ring closure, isolated yield is reported as 62%.
Work on “[(3R)-N^2-(Benzyloxycarbonyl)-3-amino-L-phenylalanyl]-[(3R)-3-hydroxy-L-leucyl]-L-leucyl-D-arginyl-L-leucyl-L-allothreonyl-glycyl-L-seryl-L-serine C^1.9-N^3.1-lactam trifluoroacetate” yielded a ring closure, isolated yield of 87%.
Work on “[(3R)-N^2-(Benzyloxycarbonyl)-3-amino-L-phenylalanyl]-[(3R)-3-hydroxy-L-leucyl]-L-leucyl-D-arginyl-L-phenylalanlyl-L-allothreonyl-glycyl-L-seryl-L-serine C^1.9-N^3.1-lactam trifluoroacetate” yielded a ring closure, isolated yield of 76%.
Substance “[(3R)-N^2-(Benzyloxycarbonyl)-3-amino-L-phenylalanyl]-[(3R)-3-hydroxy-L-leucyl]-L-leucyl-D-arginyl-L-valyl-L-allothreonyl-glycyl-L-seryl-L-serine C^1.9-N^3.1-lactam trifluoroacetate” has a ring closure, isolated yield of 91%.
With “[(3R)-N^2-(Benzyloxycarbonyl)-3-amino-L-phenylalanyl]-[(3R)-3-hydroxy-L-leucyl]-L-leucyl-D-arginyl-[3-trimethylsilyl-L-alanlyl]-L-allothreonyl-glycyl-L-seryl-L-serine C^1.9-N^3.1-lactam trifluoroacetate” the ring closure, isolated yield was 51%.

Same assay, conditions: amide bond; 28-membered ring; HATU/NMM; DMF; 0.0 °C
With “N^2.1-(Benzyloxycarbonyl)-[(3R)-3-amino-O-methyl-L-tyrosyl)]-[(3R)-3-hydroxy-L-leucyl]-L-leucyl-D-arginyl-L-isoleucyl-L-allothreonyl-glycyl-[(3S)-3-hydroxy-L-asparaginyl]-L-serine C^1.9-N^3.1-lactam trifluoroacetate” the ring closure, isolated yield was 33%.
Work on “[(3R)-N^2-(Benzyloxycarbonyl)-3-amino-L-phenylalanyl]-[(3R)-3-hydroxy-L-leucyl]-L-leucyl-D-arginyl-L-isoleucyl-L-allothreonyl-glycyl-L-alanyl-L-serine C^1.9-N^3.1-lactam trifluoroacetate” yielded a ring closure, isolated yield of 77%.
With “[(3R)-N^2-(Benzyloxycarbonyl)-3-amino-L-phenylalanyl]-[(3R)-3-hydroxy-L-leucyl]-L-leucyl-D-arginyl-L-isoleucyl-L-allothreonyl-glycyl-L-asparaginyl-L-serine C^1.9-N^3.1-lactam trifluoroacetate” the ring closure, isolated yield was 75%.
Work on “[(3R)-N^2-(Benzyloxycarbonyl)-3-amino-L-phenylalanyl]-[(3R)-3-hydroxy-L-leucyl]-L-leucyl-D-arginyl-L-isoleucyl-L-allothreonyl-glycyl-[(3S)-3-hydroxy-L-asparaginyl]-L-serine C^1.9-N^3.1-lactam trifluoroacetate” yielded a ring closure, isolated yield of 73%.

Same assay, conditions: amide bond; 28-membered ring; HATU/NMM; DMF; 7.5 mM; 0.0 °C
For “N^2.1-(Benzyloxycarbonyl)-[(3S)-3-amino-O-methyl-D-tyrosyl)]-[(3R)-3-hydroxy-L-leucyl]-L-leucyl-D-arginyl-L-isoleucyl-L-allothreonyl-glycyl-[(3S)-3-hydroxy-L-asparaginyl]-L-serine C^1.9-N^3.1-lactam trifluoroacetate”, the ring closure, isolated yield was 96%.
